Measured values from patent US11459313B2, “Aziridinyl and amino dimeric naphthoquinone compounds and use for acute myeloid leukemia” (University of Maryland, Baltimore, priority 2016, dated 2022).
Entries after “also recorded” stand apart in the source; their conditions may differ. Like-named read-outs stand apart in the source and are kept apart here.

Legend:
AML cells [1] = assay: Cell proliferation assays, AML cells (lines not given singly); format: cell-based, human; settings: MV4-11 and MOLM14, proliferation IC50
Procedure: (§1) Primary AML cells from patients and cell lines were seeded into 96-well plates the afternoon prior to treatment. Eighteen hours later, amino-dimeric naphthoquinone Compounds 106, 101, and 114 were semi-serially diluted in dimethyl sulfoxide (DMSO) and then growth medium, and added to the cells. In order to quantitate proliferation of metabolically active cells, plates were incubated for 72 hours for cell lines and 48 hours for primary AML cells prior to addition of water-soluble tetrazolium (WST-1) (Clontech®). Plates were read after four additional hours of incubation at 37° C. using a Bio-Tek Synergy® HT plate reader (Bio-Tele®). Data were analyzed and graphed using GraphPad Prism® Software (GraphPad®). IC50 was defined as the concentration that decreases viable cell numbers by 50%. IC50 values were calculated as mean±standard deviation from at least two independent experiments. If availability of primary blasts was limited, the IC50 was obtained from a single experiment.
(§2) Two AML cell lines (MV4-11 & MOLM14) were treated with increasing doses of the clinically used naphthoquinones, atovaquone and vitamin K, as well as with Compound 102; and IC50 curves were generated with respect to cell proliferation as described above.

MOLM-14 cells = assay: WST-1 cell proliferation assay, MOLM-14; format: cell-based, human; settings: Homo sapiens, cell proliferation
Procedure: (§3) Cell lines were seeded into 96-well plates the afternoon prior to treatment. Approximately 18 hours later, bis and mono-aziridine dimeric naphthoquinone compounds were semi-serially diluted in dimethyl sulfoxide (DMSO) and then growth medium, and added to cells. Plates were incubated for 72 hours prior to addition of WST-1 (Promega®). Plates were read after 4 additional hours of incubation at 37° C. using a Bio-Tek Synergy® HT plate reader (Bio-Tek®). Data were analyzed and graphed using GraphPad Prism® Software (Graph Pad®).
as §1
To investigate antiproliferative activity of amino-dimeric naphthoquinones against AML cells, an MTT-like cell proliferation assay was performed in the AML cell lines using WST-1 (water soluble tetrazolium salts; Promega®). MOLM-14 and AML-D cells, as well as normal hematopoietic bone marrow cells from a healthy donor, were exposed to a range of concentrations of Compound 101. Human leukemia cells were cultured in the presence of the compound for 72 hours (48 hours for primary cells) and WST-1 reagent was then added. The cells then were monitored for cell growth or the number of cells proliferating and the IC50 calculated. The IC50 is the concentration at which 50% of the cells are not proliferating compared to control cells treated with vehicle. See FIG. 2A, FIG. 2B, and FIG. 2C for representative graphs of these IC50 determinations.

MV4-11 cells [2] = assay: Cell survival assay (trypan blue exclusion), MV4-11; format: cell-based, human
Procedure: MOLM-.14 and THP-1 cells were seeded in 96-well plates and treated with DMSO, mono- and bis-aziridinyl dimeric naphthoquinone compounds, or dimethylamine dimeric naphthoquinone Compound 114 as previously described. Cells were incubated for 72 hours, and then counted using trypan blue exclusion on the Countess® automated cell counter (Life Technologies®). Cell counts were performed in duplicates, and the averages were graphed using GraphPad Prism® software (GraphPad®).
Cell survival was determined using trypan blue exclusion as described above, in which cells are plated and the following day treated similarly to the proliferation assay. Compound 102 (also referred to here as “66”) was effective in decreasing cell number at increasing concentrations of compound in MV4-11 cells.

AML cells [3] = assay: Clonogenicity of AML cells; format: cell-based, human
Procedure: MOLM-14 and THP-1 were treated with either DMSO control or mono-aziridine dimeric naphthoquinone or bis-aziridinyl dimeric naphthoquinone compounds at concentrations of 0.1, 1, 10 and 100 μM (micromolar) for 24 hours. The cells then were washed with growth medium and resuspended in growth medium and methylcellulose with or without DMSO or the treatment compounds. After 7 or 13 days (MOLM-14 or THP-1, respectively), treatment was terminated by addition of 1.0 mg/mL, iodonitrotetrazolium chloride (INT; Sigma Aldrich®) and read 24 hours later with an automated colony counter (Symbiosis®). Data were analyzed and graphed using GraphPad Prism® software.
as §2

[4] = target: tryptophan-2,3-dioxygenase (TDO) (Homo sapiens, UniProt P48775); assay: TDO activity; format: biochemical
Sequence of tryptophan-2,3-dioxygenase (TDO) (P48775 whole entry, species assumed): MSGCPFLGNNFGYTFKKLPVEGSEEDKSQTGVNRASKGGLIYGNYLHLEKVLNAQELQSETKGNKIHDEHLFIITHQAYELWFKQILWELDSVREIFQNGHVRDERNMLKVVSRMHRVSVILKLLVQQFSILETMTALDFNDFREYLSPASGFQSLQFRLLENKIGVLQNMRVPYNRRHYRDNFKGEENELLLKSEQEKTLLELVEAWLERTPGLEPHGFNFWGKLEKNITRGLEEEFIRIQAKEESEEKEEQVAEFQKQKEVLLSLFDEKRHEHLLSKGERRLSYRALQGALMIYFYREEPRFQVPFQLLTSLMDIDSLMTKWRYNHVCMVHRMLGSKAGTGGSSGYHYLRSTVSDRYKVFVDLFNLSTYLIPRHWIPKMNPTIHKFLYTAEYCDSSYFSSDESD
Source text: (§4) Methods were as described and according to known methods.

IDO-1 = IDO-1 (Homo sapiens, UniProt P14902); assay: IDO1 activity assay; format: biochemical
Sequence of IDO-1 (P14902 whole entry, species assumed): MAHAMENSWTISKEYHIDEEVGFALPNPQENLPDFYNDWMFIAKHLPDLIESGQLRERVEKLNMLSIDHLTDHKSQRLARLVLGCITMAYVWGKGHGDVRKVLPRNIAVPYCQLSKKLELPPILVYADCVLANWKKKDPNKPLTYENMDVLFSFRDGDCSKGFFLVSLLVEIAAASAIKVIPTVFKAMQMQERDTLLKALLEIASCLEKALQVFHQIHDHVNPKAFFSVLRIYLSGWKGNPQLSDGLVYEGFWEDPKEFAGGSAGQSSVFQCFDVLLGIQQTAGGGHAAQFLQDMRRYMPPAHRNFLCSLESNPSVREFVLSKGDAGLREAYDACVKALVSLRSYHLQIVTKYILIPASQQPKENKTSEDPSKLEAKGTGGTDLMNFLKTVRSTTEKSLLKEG
Source text: as §4

AML blasts = assay: γH2AX foci in treated AML blasts; format: cell-based
MV4-11 cells [5] = assay: WST-1 cell proliferation assay, MV4-11; format: cell-based, human; settings: Homo sapiens, cell proliferation
Procedure: as §3, §1

MV4-11 cells [6] = assay: Cellular reactive oxygen species (H2DCFA), MV4-11; format: cell-based, human
Procedure: MOLM-14 and THP-1 cells in logarithmic growth phase were centrifuged and resuspended in PBS at one million cells per milliliter (mL) of medium. Cells were preloaded with 2′,7′-dichlorodihydrofluorescein diacetate (H2DCFA, Life Technologies®) at a final concentration of 2 μM and incubated at 37° C. in the dark for 25 minutes. Cells were centrifuged and resuspended at one million per mL in phenol red-free RPMI plus 10% FBS and incubated at 37° C. in the dark for 25 minutes. Treatments were prepared at 2× concentrations of […] in complete phenol red-free RPMI and added to each well to yield 1× concentrations of 20, 10, 2, or 0.5 μM. Cells were incubated in the dark at 37° C. and measurement of ROS was performed with a Bio-tek® Synergy HT plate reader at various time points post treatment.
as §2
The amount of reactive oxygen species (ROS) that cells produced upon treatment with Compound 102 then was examined. See results in FIG. 9B. The cells were loaded with the ROS dye H2DCFA and subsequently plated into 96-well plates. […] The relative fluorescence units (RFU) were read at various time points. […]

IDO-2 = target: T1, IDO-2 (Homo sapiens, UniProt Q6ZQW0); assay: IDO-2 activity; format: biochemical
T1 sequence (Q6ZQW0 1-407): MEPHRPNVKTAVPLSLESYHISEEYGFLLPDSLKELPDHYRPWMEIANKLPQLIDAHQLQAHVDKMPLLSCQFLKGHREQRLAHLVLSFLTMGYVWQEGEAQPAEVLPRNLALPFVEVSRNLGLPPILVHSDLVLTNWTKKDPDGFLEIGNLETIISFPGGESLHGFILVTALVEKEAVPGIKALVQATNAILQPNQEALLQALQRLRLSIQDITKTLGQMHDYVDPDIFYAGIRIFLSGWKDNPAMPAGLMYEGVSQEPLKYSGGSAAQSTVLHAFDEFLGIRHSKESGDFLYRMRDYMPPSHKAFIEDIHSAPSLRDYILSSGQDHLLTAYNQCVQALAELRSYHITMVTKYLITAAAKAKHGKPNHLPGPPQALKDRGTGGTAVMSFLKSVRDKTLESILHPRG
Source text: as §4

Structure (SMILES): O=C1C(NCCO)=C(C2=C(NCCO)C(=O)c3ccccc3C2=O)C(=O)c2ccccc21 [Compound 102, 3,3′-[(2-hydroxyethyl)amino]-2,2′-binaphthalenyl-1,1′,4,4′-tetrone]
- potency relative to other naphthoquinones (atovaquone, vitamin K) against AML cells (AML cells [1]): 25-30 fold
- IC50 (MOLM-14 cells; MOLM-14, Table 2, read-out: MOLM14 IC50): 0.16 ± 0.01 µM
- IC50 (MOLM-14 cells; MOLM-14, Table 3, read-out: MOLM14 IC50): 0.16 ± 0.01 µM
- IC50 (MOLM-14 cells; MOLM-14, Table 7, read-out: IC50 (μM) MOLM-14): 0.16 µM
- cell survival, MV4-11 (MV4-11 cells [2]): dose-dependent reduction in cell survival
- inhibition of clonogenicity of AML cells (AML cells [3]): effectively inhibited clonogenicity of AML cells in a dose-dependent manner; also recorded: potent (nanomolar) inhibition of colony formation
- inhibition of TDO [4]: not
- inhibition at 1 µM (IDO-1): 37%
- inhibition at 10 µM (IDO-1): 79%
- DNA damage (γH2AX foci) (AML blasts): concomitant increase in DNA damage
- IC50 (MV4-11 cells [5]; MV4-11, Table 2, read-out: MV411 IC50): 0.2 ± 0.2 µM
- IC50 (MV4-11 cells [5]; MV4-11, Table 3, read-out: MV411 IC50): 0.2 ± 0.2 µM
- IC50 (MV4-11 cells [5]; MV4-11, Table 7, read-out: IC50 (μM) MV411): 0.2 µM
- ROS production (MV4-11 cells [6]; Example 13, cells not named in the block, 2-6 hours): dose-dependent increase in ROS production
- ROS levels, MV4-11 (MV4-11 cells [6]; at IC50 concentration): ROS levels significantly peaked after 2 hours and returned to baseline within 24 hours
- inhibition of IDO-2 (IDO-2): not
